Results taken from US5464617A, “β-lactam compounds” (Hoffmann-La Roche Inc., priority 1994, dated 1995).
In brackets after ≈: the same amount, converted by molar mass. Counter-ions that a name gives are not always drawn.

Tests used:
[1] = test system: Citrobacter freundii 1982; test: MIC in vitro of a 1:4 combination of ceftriaxone with a compound of formula I (Test D); format: cell-based; settings: for MIC C. freundii 1982 (D): test D; for MIC C. freundii 1982: Table 2
Description: The minimum inhibitory concentration in vitro ([…]) of a 1:4 combination of ceftriaxone with a compound of formula I against Citrobacter freundii 1982 was measured and compiled in Table 2 hereinafter.

E. coli 1346 = test: Antibacterial activity of the products per se, serial dilution method in liquid medium (Test E); format: cell-based; settings: product per se; for MIC E. coli 1346 (E): test E; for MIC E. coli 1346: Table 3, liquid medium
Excerpt: The antibacterial activity of the products per se is illustrated on the basis of Table 3 hereinafter, the minimum inhibitory concentration […] in vitro against E. coli 1346 being determined using the serial dilution method in liquid medium: […]

[2] = Table 4, 1:4 combination of ceftriaxone with the compound
[3] = 1:4 combination of ceftriaxone with the compound
[4] = Table 5, particularly preferred products, 1:4 combination with ceftriaxone
[5] = Table 5, particularly preferred products

| MIC C. freundii 1982 (D) [1, 2] [µg/mL] | MIC E. coli 1346 (E) (E. coli 1346; Table 4) [µg/mL] | Compound | also measured |
| --- | --- | --- | --- |
| 2 | 4 | O=C(NCc1ccncc1)OCC1=C(C(=O)O)N2C(=O)[C@H]3NC[C@@H](C1)[C@H]32 [Example 99, (1aS,3aR,6bR)-1-Oxo-5-(pyridin-4-ylmethylcarbamoyloxymethyl)-1a,2,3,3a,4,6b-hexahydro-1H-2,6a-diazacyclobut[cd]indene-6-carboxylic acid trifluoroacetate] | – |
| 1 | 0.5 | CC(=O)N1C[C@H]2CC(COC(=O)Nc3ccc(O)cc3)=C(C(=O)O)N3C(=O)[C@@H]1[C@@H]23 [90(a), (1aS,3aR,6bR)-2-Acetyl-5-(4-hydroxy-phenylcarbamoyloxymethyl)-1-oxo-1a,2,3,3a,4,6b-hexahydro-1H-2,6a-diazacyclobut[cd]indene-6-carboxylic acid sodium salt] | – |
| 0.2 | 16 | Cn1nnnc1SCC1=C(C(=O)O)N2C(=O)[C@@H]3[C@H]2[C@@H](CN3C(=O)CSc2nnc(N)s2)S1 [42(c), (1aS,3aR,6bS)-2-(2-Amino-1,3,4-thiadiazol-5-ylsulphanylacetyl)-5-(1-methyl-1H-tetrazol-5-ylsulphanylmethyl)-1-oxo-4-thia-1,1a,2,3,3a,6b-hexahydro-2,6a-diazacyclobut[cd]indene-6-carboxylic acid sodium salt] | – |
| 0.5 | 0.5 | CS(=O)(=O)N1C[C@H]2CC(COC(N)=O)=C(C(=O)O)N3C(=O)[C@@H]1[C@@H]23 [58(c), (1aS,3aR,6bR)-5-Carbamoyloxymethyl-2-methylsulphonyl-1-oxo-1a,2,3,3a,4,6b-hexahydro-1H-2,6a-diazacyclobut[cd]indene-6-carboxylic acid sodium salt] | – |
| – | – | Cn1nnnc1SC1=C(C(=O)O)N2C(=O)[C@@H]3[C@H]2[C@H](C1)CN3C(=O)NCc1ccc(O)c(O)c1 [3(e), (1aS,3aR,6bR)-2-(3,4-Dihydroxy-benzylcarbamoyl)-5-(1-methyl-1H-tetrazol-5-ylsulphanyl)-1-oxo-1a,2,3,3a,4,6b-hexahydro-1H-2,6a-diazacyclobut[cd]indene-6-carboxylic acid salt] | MIC C. freundii 1982 [1, 3]: 2 µg/mL; MIC E. coli 1346 (E. coli 1346): 32 µg/mL |
| 0.5 | 8 | Cn1nnnc1SCC1=C(C(=O)O)N2C(=O)[C@@H]3[C@H]2[C@@H](CN3C(=O)Nc2ccc(O)cc2)O1 [31(h), (1aS,3aR,6bS)-2-(4-hydroxy-phenylcarbamoyl)-5-(1-methyl-1H-tetrazol-5-ylsulphanylmethyl)-1-oxo-1,1a,2,3,3a,6b-hexahydro-4-oxa-2,6a-diazacyclobut[cd]indene-6-carboxylic acid sodium salt] | – |
| 4 | 2 | Cn1nc(O)c(=O)nc1SCC1=C(C(=O)O)N2C(=O)[C@H]3NC[C@@H](C1)[C@H]32 [Example 53, (1aS,3aR,6bR)-5-(2,5-Dihydro-6-hydroxy-2-methyl-5-oxo-1,2,4-triazin-3-ylsulphanylmethyl)-1-oxo-1a,2,3,3a,4,6 b-hexahydro-1H-2,6a-diazacyclobut[cd]indene-6-carboxylic acid trifluoroacetate] | – |
| – | – | NC(=O)c1ccc(NC(=O)N2C[C@H]3CC(CSc4ccncc4)=C(C(=O)O)N4C(=O)[C@@H]2[C@@H]34)cc1 [18(e), (1aS,3aR,6bR)-2-(4-Carbamoyl-phenylcarbamoyl)-1-oxo-5-(pyridin-4-ylsulphanylmethyl)-1a,2,3,3a,4,6b-hexahydro-1H-2,6a-diazacyclobut[cd]indene-6-carboxylic acid] | MIC C. freundii 1982 (D) [1, 4]: 0.12 µg/mL; MIC E. coli 1346 (E) (E. coli 1346; [5]): > 32 µg/mL |
| 0.25 | > 32 | NC(=O)OCC1=C(C(=O)O)N2C(=O)[C@@H]3[C@H]2[C@H](C1)CN3C(=O)NCc1ccc(O)cc1 [27(h), (1aS,3aR,6bR)-5-Carbamoyloxymethyl-2-(4-hydroxybenzylcarbamoyl)-1-oxo-1a,2,3,3a,4,6b-hexahydro-1H-2,6a-diaza-cyclobut[cd]indene-6-carboxylic acid sodium salt] | – |
| 0.5 | > 32 | Cn1ccnc1SCC1=C(C(=O)O)N2C(=O)[C@H]3NC[C@@H](S1)[C@H]32 [40(c), (1aS,3aR,6bS)-5-(1-Methyl-imidazol-2-ylsulphanyl-methyl)-1-oxo-4-thia-1,1a,2,3,3a,6b-hexahydro-2,6a-diazacyclobut[cd]indene-6-carboxylic acid] | – |
| 2 | 8 | O=C(NC1CC1)OCC1=C(C(=O)O)N2C(=O)[C@H]3NC[C@@H](C1)[C@H]32 [Example 93, (1aS,3aR,6bR)-5-Cyclopropylcarbamoyloxymethyl-1-oxo-1a,2,3,3a,4,6b-hexahydro-1H-2,6a-diazacyclobut[cd]indene-6-carboxylicacid trifluoroacetate] | – |
| 0.5 | 4 (≈ 12.3 µM) | NC(=O)CNC(=O)OCC1=C(C(=O)O)N2C(=O)[C@H]3NC[C@@H](C1)[C@H]32 [Example 95, (1aS,3aR,6bR)-5-Carbamoylmethylcarbamoyloxymethyl-1-oxo-1a,2,3,3a,4,6b-hexahydro-1H-2,6a-diazacyclobut[cd]indene-6-carboxylic acid trifluoroacemte] | – |
| 16 | 16 | CC(=O)N1C[C@H]2OC(CSc3nnnn3CC(=O)NC3CC3)=C(C(=O)O)N3C(=O)[C@@H]1[C@@H]23 [32(d), (1a-S,3aR,6bS)-2-Acetyl-5-(1-cyclopropylcarbamoylmethyl-1H-tetrazol-5-ylsulphanylmethyl)-1-oxo-1,1a,2,3,3a,6b-hexahydro-4-oxa-2,6a-diazacyclobut[cd]indene-6-carboxylic acid sodium salt] | – |
| 1 | 2 | NC(=O)OCC1=C(C(=O)O)N2C(=O)[C@@H]3[C@H]2[C@H](C1)CN3CC(=O)Nc1ccc(O)cc1 [Example 59(a), (1aS,3aR,6bR)-5-Carbamoyloxymethyl-2-(4-hydroxyphenylcarbamoylmethyl)-1-oxo-I a,2,3,3a,4,6b-hexahydro-1H-2,6a-diazacyclobut[cd]indene-6-carboxylic acid sodium salt] | – |
| 2 | 4 | CC(=O)N1C[C@H]2OC(CSc3nnnn3CC(N)=O)=C(C(=O)O)N3C(=O)[C@@H]1[C@@H]23 [32(e), (1aS,3aR,6bS)-2-Acetyl-5-(1-carbamoylmethyl-1H-tetrazol-5-ylsulphanylmethyl)-1-oxo-1,1a,2,3,3a,6b-hexahydro-4-oxa-2,6a-diazacyclobut[cd]indene-6-carboxylic acid sodium salt] | – |
| 2 | 2 | O=C(Cn1nnnc1SCC1=C(C(=O)O)N2C(=O)[C@H]3NC[C@@H](C1)[C@H]32)Nc1ccc(O)cc1 [Example 77, (1aS,3aR,6bR)-5-[1-(4-Hydroxy-phenylcarbamoylmethyl)-1H-tetrazol-5-ylsulphanylmethyl]-1-oxo-1a,2,3,3a,4,6b-hexahydro-1H-2,6a-diazacyclobut[cd]indene-6-carboxylic acid trifluoroacetate] | – |
| 32 | > 32 | O=C(O)C1=C(Sc2ccncc2)C[C@@H]2CN(C(=O)C(F)(F)F)[C@@H]3C(=O)N1[C@H]23 [3(ai), (1aS,3aR,6bR)-1-Oxo-5-(pyridin-4-ylsulphanyl)-2-trifluoracetyl-1a,2,3,3a,4,6b-hexahydro-1H-2,6a-diazacyclobut[cd]indene-6-carboxylic acid sodium salt] | – |
| 4 | 32 | CSc1nnnn1CC1=C(C(=O)O)N2C(=O)[C@H]3NC[C@@H](S1)[C@H]32 [Example 44, (1aS,3aR,6bS)-5-(5-Methylsulphanyl-1H-tetrazol-1-ylmethyl)-1-oxo-1,1a,2,3,3a,6b-hexahydro-4-thia-2,6a-diazacyclobut[cd]indene-6-carboxylic acid sodium salt] | – |
| 1 | 2 | CC(=O)N1C[C@H]2SC(CSc3nnc(C)s3)=C(C(=O)O)N3C(=O)[C@@H]1[C@@H]23 [42(a), (1aS,3aR,6bS)-2-Acetyl-5-(5-methyl-1,3,4-thiadiazol-2-ylsulphanylmethyl)-1-oxo-4-thia-1,1a,2,3,3a,6b-hexahydro-2,6a-diazacyclobut[cd]indene-6-carboxylic acid sodium salt] | – |
| – | – | Cc1nnc(SC2=C(C(=O)O)N3C(=O)[C@H]4NC[C@@H](C2)[C@H]43)s1 [Example 2(b), (1aS,3aR,6bR)-5-(5-Methyl-1,3,4-thiadiazol-2-ylsulphanyl)-1-oxo-1a, 2,3,3a,4,6b-hexahydro-1H-2,6a-diazcyclobut[cd]indene-6-carboxylic acid trifluoroacetate] | MIC C. freundii 1982 [1, 3]: 1 µg/mL; MIC E. coli 1346 (E. coli 1346): 4 µg/mL |
| – | – | Cn1nnnc1SCC1=C(C(=O)O)N2C(=O)[C@@H]3[C@H]2[C@H](C1)CN3C(=O)Nc1ccc(C(N)=O)cc1 [18(b), (1aS,3aR,6bR)-2-(4-Carbamoyl-phenylcarbamoyl)-5-(1-methyl-1H-tetrazol-5-ylsulphanylmethyl)-1-oxo-1a,2,3,3a,4,6b-hexahydro-1H-2,6a-diazacyclobut[cd]indene-6-carboxylic acid sodium salt] | MIC C. freundii 1982 [1, 3]: 0.25 µg/mL; MIC E. coli 1346 (E. coli 1346): 32 µg/mL |
| – | – | Cn1nnnc1SCC1=C(C(=O)O)N2C(=O)[C@@H]3[C@H]2[C@H](C1)CN3S(C)(=O)=O [Example 19(e), (1aS,3aR,6bR)-2-Methylsulphonyl-5-(1-methyl-1H-tetrazol-5-ylsulphanylmethyl)-1-oxo-1a,2,3,3a,4,6b-hexahydro-1H-2,6a-diazacyclobut[cd]indene-6-carboxylic acid sodium salt] | MIC C. freundii 1982 (D) [1, 4]: 0.25 µg/mL; MIC E. coli 1346 (E) (E. coli 1346; [5]): 1 µg/mL |
